# Legend:
# [1] = system: mTOR kinase activity (pS6/S6 levels); test: Liver protein analysis in mice: pS6/S6; assay type: in vivo; conditions: Table 30; mouse liver 24 h; oligonucleotide 5 mg/kg (or PBS); Treatment AZD8055 5 mg/kg at 0, 12, 22 h
# Description: The following experiments were performed to determine if the effects of autophagy modulators on antisense activity in vitro can be observed in vivo. […] Following administration of modified oligonucleotide, mice were administered 1% DMSO or 5 mg/kg AZD8055 in 1% DMSO at three time points over 24 hours: at the time of administration of the modified oligonucleotide, and 12 and 22 hours after administration of the modified oligonucleotide. A group of control mice was administered PBS at time 0 and 1% DMSO at 0, 12, and 22 hours. Mice were sacrificed at 24 hours after administration of the modified oligonucleotide and tissues were collected for analysis.
# Protein analysis was carried out on liver tissue using standard procedures. All proteins were normalized to α-tubulin. […] The antibody against LC3B (ab48394) was purchased from Abcam. […] Antibody against P62 (GP62-C) was purchased from Progen.
# A group of control mice was administered PBS at time 0 and 1% DMSO at 0, 12, and 22 hours. Mice were sacrificed at 24 hours after administration of the modified oligonucleotide and tissues were collected for analysis. […]
# Malat-1 = Malat-1 RNA by RT-qPCR in A431 cells; assay type: cell-based, human; conditions: MOE gapmer
# Description: RT-qPCR analysis was performed to detect RNA levels of Malat-1 using primer probe set RTS2736. Results were normalized to cyclophilin A levels (measured using HTS3936). […] Each table below represents results from an individual assay.
# p62 = test: Liver protein analysis in mice: p62; assay type: in vivo; conditions: Table 30; mouse liver 24 h; oligonucleotide 5 mg/kg (or PBS); Treatment AZD8055 5 mg/kg at 0, 12, 22 h
# Description: (§1) The following experiments were performed to determine if the effects of autophagy modulators on antisense activity in vitro can be observed in vivo. Groups of 3-4 8-week-old male C57bl/6J mice were administered 5 mg/kg control oligonucleotide 141923, or 5 mg/kg antisense oligonucleotide 399462. Following administration of modified oligonucleotide, mice were administered 1% DMSO or 5 mg/kg AZD8055 in 1% DMSO at three time points over 24 hours: at the time of administration of the modified oligonucleotide, and 12 and 22 hours after administration of the modified oligonucleotide. A group of control mice was administered PBS at time 0 and 1% DMSO at 0, 12, and 22 hours. Mice were sacrificed at 24 hours after administration of the modified oligonucleotide and tissues were collected for analysis.
# (§2) Autophagy activation was confirmed in livers by determining suppression of mTOR kinase activity (pS6/S6 levels), determining an increased LC3B II/I ratio (a marker for the formation of autophagosomes), and determining p62 degradation (related to the clearance of autophagosomes). Protein analysis was carried out on liver tissue using standard procedures. All proteins were normalized to α-tubulin. Phospho-S6 Ribosomal Protein (Ser240/244) (2215S), and S6 Ribosomal Protein (2217S) antibodies were obtained from Cell Signaling Technology. The antibody against LC3B (ab48394) was purchased from Abcam. […]
# Atg7 = Atg7 mRNA in mouse liver by RT-qPCR; assay type: in vivo; conditions: Table 31; mouse liver 24 h; oligonucleotide 5 mg/kg; AZD8055 5 mg/kg at 0, 12, 22 h
# Description: The following experiments were performed to determine if the effects of autophagy modulators on antisense activity in vitro can be observed in vivo. […] Mice were sacrificed at 24 hours after administration of the modified oligonucleotide and tissues were collected for analysis. […] Atg7 mRNA levels are a marker of the induction of autophagy in treated mouse livers. Results are presented as percent change of RNA, relative to PBS control treated with DMSO, normalized to mouse cyclophilin A measured using mouse primer probe set Cyclophilin-A (forward sequence [NT], designated herein as SEQ ID NO: 38; reverse sequence [NT], designated herein as SEQ ID NO: 39; probe sequence [NT], designated herein as SEQ ID NO: 40). […] Following administration of modified oligonucleotide, groups of mice were either allowed free access to chow (control) or fasted overnight (16 hr fast). Mice were sacrificed at 16 hours after administration of the modified oligonucleotide and tissues were collected for analysis. […] Atg7 mRNA levels are a marker of the induction of autophagy in treated mouse livers. Results are presented in Table 33 relative to mice treated with PBS and allowed normal access to chow. […] Mice were sacrificed at 24 hours after administration of the modified oligonucleotide and tissues were collected for analysis. […]
# LC3B = test: Liver protein analysis in mice: LC3B II/I ratio; assay type: in vivo; conditions: Table 30; mouse liver 24 h; oligonucleotide 5 mg/kg (or PBS); Treatment AZD8055 5 mg/kg at 0, 12, 22 h
# Description: as §1, §2
structure (smiles),measurement,setting,value
COc1ccc(-c2ccc3c(N4CCOC[C@@H]4C)nc(N4CCOC[C@@H]4C)nc3n2)cc1CO [AZD8055],pS6/S6 ratio,[1],0.2
same,effect of autophagy modulator on modified oligonucleotide activity (in words),Malat-1,significantly enhanced modified oligonucleotide activity
same,P62,p62,0.5
same,Atg7 level (% relative to PBS/DMSO-treated mice),Atg7,112%
same,LC3B II/I ratio,LC3B,2.3

# — patent US20210130826A1, “METHODS OF MODULATING ANTISENSE ACTIVITY” (IONIS PHARMACEUTICALS, INC., priority 2018, published 2021)
